Assay results taken from patent US8828696B2, “Use of Penicillin G Procaine as a selective antimicrobial agent in the production of alcohol by fermentation” (Lallemand Specialites, Inc, priority 2008, dated 2014).
Where two headings read alike, the source gives them in different places.

System: Saccharomyces cerevisiae yeast
Format: cell-based
Description: A study was conducted to determine the degree of impact of the fermentation antimicrobial Penicillin G Procaine and Penicillin G potassium during alcohol production by fermentation. The antimicrobial impact was inferred by conducting a series of fermentations and measuring if the above said antibiotics interfered with the cell growth and the fermentation function of Saccharomyces cerevisiae yeast used in the fermentation phase. This study provided analysis of what impact, if any, the Penicillin G Procaine or Penicillin G Potassium has on the yeast during lab scale fermentations, specifically BioFerm® XR yeast from North American Bioproducts Corporation (NABC). This study observed the ability of yeast to replicate and ferment a corn mash substrate with and without the presence of Penicillin G Procaine or Penicillin G Potassium.
This study was set up in a series of fermentation vessels. All antibiotic concentrations were tested in triplicate. Cell counts were done on one flask for each treatment at 12, 24, 36 and 48 hours and testing of the fermentation reactions by HPLC was also performed at 12, 24, 36 and 48 hours. The experiment was set as follows:
1. Antibiotic solutions were prepared to provide a sterile 1 and 10 μg/ml solutions.
2. Antibiotic solutions tested were as follows:
3. Fermentations were set up using 31% solids corn mash using saccharifying enzymes and the following procedure:
A. Yeast Conditioning: • 1. Add 2 g yeast to 10 ml sterile water for each 3 flasks to test, (14 g yeast to 70 ml water) into a sterile 250 ml flask and place in water bath set to 100° F. • 2. Incubate at 100° F. for 30 minutes with occasional mixing. • 3. Remove flasks from water bath and divide suspension between the all flasks for the trial.
B. Fermentation Procedure • 1. To prepared mash, add the following. • a. Add 0.58 g urea/liter mash and mix. • b. Add 0.2 ml GA per liter and mix. • 2. Remove sample for background HPLC testing. • 3. Add antibiotic solution to labeled sterile 250 ml flasks. • 4. Add hydrated yeast suspension to mash and mix well. • 5. Add sterile stir bar to each flask and add about 150 ml mash into each 250 ml flask for a total of 21 flasks. • 6. Cover each flask with a gas trap in a sterilized stopper. • 7. Place in a 33° C. water bath with continuous mixing at 280 rpm at 75% power. • 8. Remove sample at 12 hr interval to perform cell count, viability and budding. • 9. Incubate sample up to 48 hours, enough time for complete fermentation • 10. Collect samples at the following times for cell counts and HPLC testing: 12 hours; 24 hours; 36 hours and 48 hours

[1] = 5 ppm, 12 hours, total cell count x % viability
[2] = 5 ppm, 12 hr fermentation sample
[3] = 5 ppm, 24 hours, total cell count x % viability
[4] = 5 ppm, 24 hr fermentation sample
[5] = 5 ppm, 36 hours, total cell count x % viability
[6] = 5 ppm, 36 hr fermentation sample
[7] = 5 ppm, 48 hours, total cell count x % viability
[8] = 5 ppm, 48 hr fermentation sample
[9] = 5 ppm, average of 12, 24, 36 and 48 hour samples
[10] = 15 ppm, 12 hours, total cell count x % viability
[11] = 15 ppm, 12 hr fermentation sample
[12] = 15 ppm, 24 hours, total cell count x % viability
[13] = 15 ppm, 24 hr fermentation sample
[14] = 15 ppm, 36 hours, total cell count x % viability
[15] = 15 ppm, 36 hr fermentation sample
[16] = 15 ppm, 48 hours, total cell count x % viability
[17] = 15 ppm, 48 hr fermentation sample
[18] = 15 ppm, average of 12, 24, 36 and 48 hour samples
[19] = 30 ppm, 12 hours, total cell count x % viability
[20] = 30 ppm, 12 hr fermentation sample
[21] = 30 ppm, 24 hours, total cell count x % viability
[22] = 30 ppm, 24 hr fermentation sample
[23] = 30 ppm, 36 hours, total cell count x % viability
[24] = 30 ppm, 36 hr fermentation sample
[25] = 30 ppm, 48 hours, total cell count x % viability
[26] = 30 ppm, 48 hr fermentation sample
[27] = 30 ppm, average of 12, 24, 36 and 48 hour samples
[28] = average for all three trials (5, 15, 30 ppm), 12-48 hour samples
[29] = average for all three trials (5, 15, 30 ppm), 12 hours
[30] = average for all three trials (5, 15, 30 ppm), 24 hours
[31] = average for all three trials (5, 15, 30 ppm), 36 hours
[32] = average for all three trials (5, 15, 30 ppm), 48 hours
[33] = average for all three trials (5, 15, 30 ppm), Average 12-48 hours

Compound: CC1(C)S[C@@H]2[C@H](NC(=O)Cc3ccccc3)C(=O)N2[C@H]1C(=O)O.CCN(CC)CCOC(=O)c1ccc(N)cc1 [Penicillin G Procaine]
- viable yeast cell count [1]: 535
- % B (% budding) [2]: 15.0%
- % V (% viability) [2]: 89%
- CC (cell count) [2]: 601
- viable yeast cell count [3]: 489
- % B (% budding) [4]: 7.9%
- % V (% viability) [4]: 88%
- CC (cell count) [4]: 556
- viable yeast cell count [5]: 432
- % B (% budding) [6]: 9.2%
- % V (% viability) [6]: 83%
- CC (cell count) [6]: 521
- viable yeast cell count [7]: 404
- % B (% budding) [8]: 8.0%
- % V (% viability) [8]: 75%
- CC (cell count) [8]: 538
- viable yeast cell count (5 ppm, Average 12-48 hours): 465
- A % B (average % budding) [9]: 10.0%
- A % V (average % viability) [9]: 83.8%
- ACC (average cell count) [9]: 554
- viable yeast cell count [10]: 494
- % B (% budding) [11]: 17.7%
- % V (% viability) [11]: 86%
- CC (cell count) [11]: 574
- viable yeast cell count [12]: 528
- % B (% budding) [13]: 7.8%
- % V (% viability) [13]: 91%
- CC (cell count) [13]: 580
- viable yeast cell count [14]: 410
- % B (% budding) [15]: 7.3%
- % V (% viability) [15]: 78%
- CC (cell count) [15]: 526
- viable yeast cell count [16]: 385
- % B (% budding) [17]: 9.0%
- % V (% viability) [17]: 74%
- CC (cell count) [17]: 520
- viable yeast cell count (15 ppm, Average 12-48 hours): 454
- A % B (average % budding) [18]: 10.4%
- A % V (average % viability) [18]: 82.3%
- ACC (average cell count) [18]: 550
- viable yeast cell count [19]: 528
- % B (% budding) [20]: 14.8%
- % V (% viability) [20]: 85%
- CC (cell count) [20]: 621
- viable yeast cell count [21]: 496
- % B (% budding) [22]: 10.3%
- % V (% viability) [22]: 89%
- CC (cell count) [22]: 557
- viable yeast cell count [23]: 400
- % B (% budding) [24]: 7.0%
- % V (% viability) [24]: 78%
- CC (cell count) [24]: 513
- viable yeast cell count [25]: 385
- % B (% budding) [26]: 6.0%
- % V (% viability) [26]: 78%
- CC (cell count) [26]: 493
- viable yeast cell count (30 ppm, Average 12-48 hours): 452
- A % B (average % budding) [27]: 9.5%
- A % V (average % viability) [27]: 82.5%
- ACC (average cell count) [27]: 546
- A % B (average % budding) [28]: 10.0%
- A % V (average % viability) [28]: 82.8%
- ACC (average cell count) [28]: 550
- viable yeast cell count [29]: 519
- viable yeast cell count [30]: 504
- viable yeast cell count [31]: 414
- viable yeast cell count [32]: 391
- viable yeast cell count [33]: 457

Compound: CC1(C)S[C@@H]2[C@H](NC(=O)Cc3ccccc3)C(=O)N2[C@H]1C(=O)[O-].[K+] [Penicillin G Potassium]
- viable yeast cell count [1]: 510
- % B (% budding) [2]: 13.8%
- % V (% viability) [2]: 88%
- CC (cell count) [2]: 580
- viable yeast cell count [3]: 500
- % B (% budding) [4]: 8.4%
- % V (% viability) [4]: 90%
- CC (cell count) [4]: 556
- viable yeast cell count [5]: 421
- % B (% budding) [6]: 8.1%
- % V (% viability) [6]: 81%
- CC (cell count) [6]: 520
- viable yeast cell count [7]: 381
- % B (% budding) [8]: 8.9%
- % V (% viability) [8]: 75%
- CC (cell count) [8]: 508
- viable yeast cell count (5 ppm, Average 12-48 hours): 453
- A % B (average % budding) [9]: 9.8%
- A % V (average % viability) [9]: 83.5%
- ACC (average cell count) [9]: 541
- viable yeast cell count [10]: 469
- % B (% budding) [11]: 13.3%
- % V (% viability) [11]: 85%
- CC (cell count) [11]: 552
- viable yeast cell count [12]: 465
- % B (% budding) [13]: 7.5%
- % V (% viability) [13]: 86%
- CC (cell count) [13]: 541
- viable yeast cell count [14]: 435
- % B (% budding) [15]: 6.2%
- % V (% viability) [15]: 82%
- CC (cell count) [15]: 530
- viable yeast cell count [16]: 372
- % B (% budding) [17]: 7.3%
- % V (% viability) [17]: 72%
- CC (cell count) [17]: 516
- viable yeast cell count (15 ppm, Average 12-48 hours): 435
- A % B (average % budding) [18]: 8.6%
- A % V (average % viability) [18]: 81.3%
- ACC (average cell count) [18]: 535
- viable yeast cell count [19]: 535
- % B (% budding) [20]: 12.3%
- % V (% viability) [20]: 86%
- CC (cell count) [20]: 622
- viable yeast cell count [21]: 462
- % B (% budding) [22]: 8.7%
- % V (% viability) [22]: 88%
- CC (cell count) [22]: 525
- viable yeast cell count [23]: 401
- % B (% budding) [24]: 8.7%
- % V (% viability) [24]: 80%
- CC (cell count) [24]: 501
- viable yeast cell count [25]: 393
- % B (% budding) [26]: 6.4%
- % V (% viability) [26]: 77%
- CC (cell count) [26]: 511
- viable yeast cell count (30 ppm, Average 12-48 hours): 448
- A % B (average % budding) [27]: 9.0%
- A % V (average % viability) [27]: 82.8%
- ACC (average cell count) [27]: 540
- A % B (average % budding) [28]: 9.1%
- A % V (average % viability) [28]: 82.5%
- ACC (average cell count) [28]: 539
- viable yeast cell count [29]: 505
- viable yeast cell count [30]: 476
- viable yeast cell count [31]: 419
- viable yeast cell count [32]: 382
- viable yeast cell count [33]: 445
